pKi: −log10 of the molar value. Where “and” joins values, the source holds several entries; their conditions need not be identical. Equal entries are not always repeated.
What was measured:
[1] = Solubility by visual inspection in PBS; type: physicochemical
[2] = tested on: spontaneous inflammatory pain (CFA model); test: Single exposure place preference (sePP), spontaneous pain; type: in vivo, mice
Procedure: Inflammatory pain (CFA model): Animals were habituated to the experimental room for a minimum of 60 min before initiation of the experiment. Mechanical pain threshold of both hind paws was determined by von Frey measurements. Injury was induced on the right hind paw, whereas the contralateral left hind paw was used as internal control of the animal. […] In the current experiment filaments in ascending order were applied to the frontocentral plantar surface of the hind paws. […] Each von Frey filament was applied five times with adequate resting periods between each application and number of withdrawals recorded. The withdrawal threshold was determined as the von Frey filament eliciting at least 3 positive trials out of the 5 applications in two consecutive filaments. A positive trial was defined as sudden paw withdrawal, flinching and/or paw licking induced by the filament. The inflammatory pain was induced by injection of 50 μL undiluted Complete Freund's Adjuvant (CFA) ([…], Sigma) unilaterally into the intraplantar surface of the right hind paw. All intraplantar injections were performed with an insulin needle (0.3 mL BD Micro-Fine), while the animal was under isoflurane anesthesia (2%) for maximum 60 seconds. […] Statistical analysis: was performed using GraphPad Prism 6.0. Student's t-test. Significance level set to p<0.05. […] All mice from a cage were tested at the same time, but not all given the same treatment. On exposure days, mice were weighed and injected s.c. with peptide (30 μmol/kg) or vehicle (10 μL/g) and immediately placed into the designated compartment for 60 min. The test group was exposed to peptide in the least preferred compartment, and vehicle (PBS) in the preferred compartment, whereas the control group was injected with vehicle in both compartments. […] Time spent in the different compartments was measured by Ethovision (Noldus, Wageningen, Netherlands). An additional experiment was run on animals without injury, showing no mPD5-dependent preference change

PICK1 [3] = target: T1, PICK1 (Rattus norvegicus, UniProt Q9EP80); test: Size exclusion chromatography of PICK1 in complex with inhibitor; settings: 40 μM PICK1 with 10 μM inhibitor (4:1)
T1 construct: Full length rat PICK1 (pET41) was prepared as described earlier; inferred from pET41 vector and Glutathione-Sepharose capture) (N, cleaved yes); made in house; host or cells: E. coli BL21-DE3-pLysS
Procedure: Full length rat PICK1 (pET41) was prepared as described earlier (Madsen et al., 2005). In brief, PICK1 was expressed in BL21-DE3-pLysS cells and grown at 37° C., induced at OD600=0.6 with 1 mM Isopropyl β-D-1-thiogalactopyranoside (IPTG) and grown 16 hrs at 20° C. Cultures were harvested and re-suspended in 50 mM trisaminomethane (Tris), 125 mM NaCl, 2 mM Dithiothreitol (DTT, Sigma), 1% Triton X-100 (Sigma), 20 μg/mL DNAse 1 and 1⁄2 a tablet cOmplete protease inhibitor cocktail (Roche) pr. 1 L culture. The re-suspended pellets were frozen at -80° C. for later purification. […] Each column was sealed and 0.075 U/μL, Novagen® was added for cleavage 0/N at 4° C. under gentle rotation. PICK1 was eluted on ice and absorption at 280 nm was measured on TECAN plate reader or on a NanoDrop3000. The protein concentration was determined using lambert beers law (A=ε[…]=32320 (cm*mol/L)^-1. Size exclusion chromatography: Size exclusion chromatography was performed using an Äkta purifier with a Superdex200 Increase 10/300 column, where 500 μL of 40 μM PICK1 in absence or presence of 10 μM […] was loaded to the column. Absorbance profile was measured at 280 nm and plotted against elution volume using Graph Pad Prism 8.3.

PICK1 [4] = target: T1, PICK1; test: Fluorescence polarization competition binding to recombinant PICK1
Procedure: Full length rat PICK1 (pET41) was prepared as described earlier (Madsen et al., 2005). In brief, PICK1 was expressed in BL21-DE3-pLysS cells and grown at 37° C., induced at OD600=0.6 with 1 mM Isopropyl β-D-1-thiogalactopyranoside (IPTG) and grown 16 hrs at 20° C. Cultures were harvested and re-suspended in 50 mM trisaminomethane (Tris), 125 mM NaCl, 2 mM Dithiothreitol (DTT, Sigma), 1% Triton X-100 (Sigma), 20 μg/mL DNAse 1 and 1⁄2 a tablet cOmplete protease inhibitor cocktail (Roche) pr. 1 L culture. The re-suspended pellets were frozen at -80° C. for later purification. […] Each column was sealed and 0.075 U/μL, Novagen® was added for cleavage 0/N at 4° C. under gentle rotation. PICK1 was eluted on ice and absorption at 280 nm was measured on TECAN plate reader or on a NanoDrop3000. The protein concentration was determined using lambert beers law (A=ε[…]=32320 (cm*mol/L)^-1. Fluorescence polarization: Fluorescence polarization was carried out in competition mode at a fixed concentration of protein and tracer (5[…], 5 nM or 5[…], 20 nM), against an increasing concentration of indicated unlabelled peptide. The plate was incubated for 2 hours on ice in a black half-area Corning Black non-binding surface 96-well plate. The fluorescence polarization was measured directly on an Omega POLARstar plate reader using excitation filter at 488 nm and long pass emission filter at 535 nm. The data was plotted using GraphPad Prism 8.3, and fitted to the One site competition, to extract Ki,app value.

T1 sequence (Q9EP80 whole entry): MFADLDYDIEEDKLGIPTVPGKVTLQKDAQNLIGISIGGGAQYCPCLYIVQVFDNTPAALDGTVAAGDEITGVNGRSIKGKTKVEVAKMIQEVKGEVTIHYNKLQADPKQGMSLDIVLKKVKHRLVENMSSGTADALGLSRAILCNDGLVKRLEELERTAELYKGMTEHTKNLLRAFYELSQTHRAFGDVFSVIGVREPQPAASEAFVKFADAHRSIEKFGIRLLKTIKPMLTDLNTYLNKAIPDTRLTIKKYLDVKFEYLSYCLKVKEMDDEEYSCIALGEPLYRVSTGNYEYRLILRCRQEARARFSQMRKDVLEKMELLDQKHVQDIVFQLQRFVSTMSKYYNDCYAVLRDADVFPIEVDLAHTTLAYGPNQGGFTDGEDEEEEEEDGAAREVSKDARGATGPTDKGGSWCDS

## CCCCCCCCCCCCCC(=O)N(CCOCCOCCC(=O)N[C@@H](Cc1c[nH]cn1)C(=O)N[C@@H](Cc1c[nH]c2ccccc12)C(=O)N[C@@H](CC(C)C)C(=O)N[C@@H](CCCCN)C(=O)N[C@H](C(=O)O)C(C)C)CCOCCOCCC(=O)N[C@@H](Cc1c[nH]cn1)C(=O)N[C@@H](Cc1c[nH]c2ccccc12)C(=O)N[C@@H](CC(C)C)C(=O)N[C@@H](CCCCN)C(=O)N[C@H](C(=O)O)C(C)C [myr-NPEG4-(HWLKV)2]
[1]
  solubility: ≥ 130000 µM and 250000 µg/mL
[2]; CFA-injured mice, s.c. 30 μmol/kg, single exposure
  place preference, time in drug-paired compartment vs vehicle-treated controls: spent significantly more time in the myr-NPEG4-(HWLKV)2-paired compartment
[2]; mice without injury (Naïve), s.c. 30 μmol/kg, single exposure
  place preference: no change in preference
[2]; mouse, in vivo
  abuse liability: lack of abuse liability
PICK1 [3]
  oligomeric state of PICK1 upon binding (SEC elution volume): forms higher order oligomeric structures of PICK1 upon binding
PICK1 [4]; FP competition
  affinity increase compared to HWLKV: > 1000 fold
  affinity increase compared to NPEG4-(HWLKV)2: > 50 fold
PICK1 [4]; tracer 5FAM-NPEG4-(HWLKV)2 5 nM or 5FAM-HWLKV 20 nM (vs HWLKV), 2 hours on ice, read-out: Ki,app
  pKi: 8.52
